According to PubChem BioAssay (NCI):
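Five concentrations, 48 hours, 96-well plates. The concentration for 50% growth inhibition is given as GI50. TGI: total growth inhibition.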

Legend:
Assay in all cases: growth of human tumour cells (NCI), 48 h
[1] = test system: 786-0 renal
[2] = test system: A498 renal
[3] = test system: A549 NSCLC
[4] = test system: ACHN renal
[5] = test system: BT-549 breast
[6] = test system: CAKI-1 renal
[7] = test system: CCRF-CEM leukemia
[8] = test system: COLO 205 colon
[9] = test system: DU-145 prostate
[10] = test system: EKVX NSCLC
[11] = test system: HCC-2998 colon
[12] = test system: HCT-116 colon
[13] = test system: HCT-15 colon
[14] = test system: HL-60(TB) leukemia
[15] = test system: HOP-62 NSCLC
[16] = test system: HOP-92 NSCLC
[17] = test system: HS 578T breast
[18] = test system: HT29 colon
[19] = test system: IGROV1 ovarian
[20] = test system: K-562 leukemia
[21] = test system: KM12 colon
[22] = test system: LOX IMVI melanoma
[23] = test system: M14 melanoma
[24] = test system: MALME-3M melanoma
[25] = test system: MCF7 breast
[26] = test system: MDA-MB-231 breast
[27] = test system: MDA-MB-435
[28] = test system: MDA-MB-468 breast
[29] = test system: MOLT-4 leukemia

Question: With `CC(=C(c1ccc(OCCCN(C)C)cc1)c1ccc(OCCCN(C)C)cc1)c1ccccc1` as the molecule, how does the GI50 [1] read?
Answer: 352 nM

Question: And the TGI [1]?
Answer: 736 nM

Question: And the GI50 [2]?
Answer: 3900 nM

Question: What about the TGI [2] of the same molecule?
Answer: 7220 nM

Question: What about the GI50 [3] of the same molecule?
Answer: 753 nM

Question: What about the TGI [3] of the same molecule?
Answer: 3180 nM

Question: And the GI50 [4]?
Answer: 473 nM

Question: What about the TGI [4] of the same molecule?
Answer: 1040 nM

Question: What about the GI50 [5] of the same molecule?
Answer: 2440 nM

Question: And the TGI [5]?
Answer: 5420 nM

Question: What about the GI50 [6] of the same molecule?
Answer: 515 nM

Question: And the TGI [6]?
Answer: 1760 nM

Question: And the GI50 [7]?
Answer: 438 nM

Question: And the TGI [7]?
Answer: 1130 nM

Question: And the GI50 [8]?
Answer: 396 nM

Question: What about the TGI [8] of the same molecule?
Answer: 744 nM

Question: And the GI50 [9]?
Answer: 1100 nM

Question: And the TGI [9]?
Answer: 3820 nM

Question: What about the GI50 [10] of the same molecule?
Answer: 2430 nM

Question: What about the TGI [10] of the same molecule?
Answer: 5280 nM

Question: What about the GI50 [11] of the same molecule?
Answer: 570 nM

Question: What about the TGI [11] of the same molecule?
Answer: 2080 nM

Question: What about the GI50 [12] of the same molecule?
Answer: 370 nM

Question: And the TGI [12]?
Answer: 847 nM

Question: And the GI50 [13]?
Answer: 635 nM

Question: What about the TGI [13] of the same molecule?
Answer: 2290 nM

Question: What about the GI50 [14] of the same molecule?
Answer: 389 nM

Question: And the TGI [14]?
Answer: 1050 nM

Question: And the GI50 [15]?
Answer: 2620 nM

Question: And the TGI [15]?
Answer: 5930 nM

Question: And the GI50 [16]?
Answer: 508 nM

Question: And the TGI [16]?
Answer: 3280 nM

Question: And the GI50 [17]?
Answer: 448 nM

Question: And the TGI [17]?
Answer: 1780 nM

Question: And the GI50 [18]?
Answer: 385 nM

Question: What about the TGI [18] of the same molecule?
Answer: 917 nM

Question: What about the GI50 [19] of the same molecule?
Answer: 1170 nM

Question: What about the TGI [19] of the same molecule?
Answer: 4020 nM

Question: What about the GI50 [20] of the same molecule?
Answer: 621 nM

Question: And the TGI [20]?
Answer: 22000 nM

Question: And the GI50 [21]?
Answer: 771 nM

Question: And the TGI [21]?
Answer: 2690 nM

Question: And the GI50 [22]?
Answer: 380 nM

Question: What about the TGI [22] of the same molecule?
Answer: 706 nM

Question: What about the GI50 [23] of the same molecule?
Answer: 386 nM

Question: What about the TGI [23] of the same molecule?
Answer: 768 nM

Question: What about the GI50 [24] of the same molecule?
Answer: 343 nM

Question: And the TGI [24]?
Answer: 640 nM

Question: What about the GI50 [25] of the same molecule?
Answer: 213 nM

Question: What about the TGI [25] of the same molecule?
Answer: 655 nM

Question: What about the GI50 [26] of the same molecule?
Answer: 420 nM

Question: What about the TGI [26] of the same molecule?
Answer: 907 nM

Question: And the GI50 [27]?
Answer: 470 nM

Question: And the TGI [27]?
Answer: 1150 nM

Question: And the GI50 [28]?
Answer: 358 nM

Question: What about the TGI [28] of the same molecule?
Answer: 805 nM

Question: What about the GI50 [29] of the same molecule?
Answer: 627 nM

Question: What about the TGI [29] of the same molecule?
Answer: 2430 nM
